Reference: paper PMC9000588 (Molecules, 2022)
Numbered stars: 1 amine (or outer) side, 2 acyl side, 3 side chain; on linkers, the order of the positions; unused ones are H or OH. Bridge positions count the residues as written; N and C are the ends. Ends that are not written are not given here. Peptide text beside a SMILES is read from it. Suc = O=C(CCC(=O)[*:2])[*:1]

Biological target: SARS-CoV-2 spike protein RBD (Severe acute respiratory syndrome coronavirus 2, UniProt P0DTC2)
Test: biochemical
Assay type: binding
Conditions: for kon: read-out: Ka; for Binding (Yes/No): pH 7.4

| Compound | kon [M⁻¹ s⁻¹] | other results |
| --- | --- | --- |
| CSCC[C@@H]1NC(=O)[C@H](CC(C)C)NC(=O)[C@H](CCCCN)NC(=O)[C@H](CCC(=O)O)NC(=O)[C@H](Cc2ccccc2)NC(=O)[C@H](CC(C)C)NC(=O)[C@H](CC(=O)O)NC(=O)[C@H](CCC(=O)O)NC(=O)[C@H](C)NC(=O)[C@H](CCC(=O)O)NC(=O)[C@H](Cc2c[nH]cn2)NC(=O)[C@H](CC(N)=O)NC(=O)[C@H](Cc2ccccc2)NC(=O)[C@H](CCCCN)NC1=O [Peptide 3] (cyclo(AEDLFEKLMKFNHE)) | 15.1 ± 3.8 | – |
| CSCC[C@H](NC(=O)[C@H](CC(C)C)NC(=O)[C@H](CCCCN)NC(=O)[C@H](CCC(=O)O)NC(=O)[C@H](Cc1ccccc1)NC(=O)[C@H](CC(C)C)NC(=O)[C@H](CC(=O)O)NC(=O)[C@H](CCC(=O)O)NC(=O)[C@H](C)NC(=O)[C@H](CCC(=O)O)NC(=O)[C@H](Cc1c[nH]cn1)NC(=O)[C@H](CC(N)=O)NC(=O)[C@H](Cc1ccccc1)NC(=O)[C@H](CCCCN)NC(=O)CCC(=O)O)C(N)=O [Peptide 4] (Suc-KFNHEAEDLFEKLM-NH2) | 13.9 ± 3.6 | – |
| CSCC[C@@H]1NC(=O)[C@H](CC(C)C)NC(=O)[C@H](CCCCN)NC(=O)[C@H](CCC(=O)O)NC(=O)[C@H](Cc2ccccc2)NC(=O)[C@H](CC(C)C)NC(=O)[C@H](CC(=O)O)NC(=O)[C@H](CCC(=O)O)NC(=O)[C@H](C)NC(=O)[C@H](CCC(=O)O)NC(=O)[C@H](Cc2c[nH]cn2)NC(=O)[C@H](CC(N)=O)NC(=O)[C@H](Cc2ccccc2)NC(=O)[C@H](CCCCN)NC(=O)[C@@H](N)CSSC[C@@H](C(N)=O)NC1=O [Peptide 6] (H-CKFNHEAEDLFEKLMC-NH2; disulfide 1-16) | 6.84 ± 2.46 | – |
| CSCC[C@H](NC(=O)[C@H](CC(=O)O)NC(=O)[C@H](CCC(=O)O)NC(=O)[C@H](Cc1ccccc1)NC(=O)[C@H](CC(C)C)NC(=O)[C@H](CCC(=O)O)NC(=O)[C@H](CCC(=O)O)NC(=O)[C@H](Cc1ccccc1)NC(=O)[C@H](CC(C)C)NC(=O)[C@H](CCCCN)NC(=O)[C@H](CCC(=O)O)NC(=O)[C@H](Cc1ccccc1)NC(=O)[C@H](CC(C)C)NC(=O)[C@H](CC(=O)O)NC(=O)[C@H](CCC(=O)O)NC(=O)[C@H](C)NC(=O)[C@H](CCC(=O)O)NC(=O)[C@H](Cc1c[nH]cn1)NC(=O)[C@H](CC(N)=O)NC(=O)[C@H](Cc1ccccc1)NC(=O)[C@H](CCCCN)NC(=O)CCC(=O)O)C(N)=O [Peptide 7] (Suc-KFNHEAEDLFEKLFEELFEDM-NH2) | 4.29 ± 0.52 | Kd: (2.09 ± 0.39) × 10^−2 M^−1; Binding (Yes/No): Yes |
| CC(C)C[C@H](NC(=O)CCC(=O)O)C(=O)N[C@@H](CC(C)C)C(=O)N[C@@H](CCC(=O)O)C(=O)N[C@@H](CCCCN)C(=O)N[C@@H](CC(C)C)C(=O)N[C@@H](CC(C)C)C(=O)N[C@@H](CCC(=O)O)C(=O)N[C@@H](Cc1c[nH]c2ccccc12)C(=O)N[C@@H](CC(C)C)C(=O)N[C@@H](CCC(=O)O)C(N)=O [Peptide 9] (Suc-LLEKLLEWLE-NH2) | 5.83 ± 2.92 | Kd: (1.39 ± 0.16) × 10^−2 M^−1; Binding (Yes/No): Yes |
| Ac-KFNHEAEDLFEKLM [Peptide 5] | 0.64 ± 0.09 | – |
| GLFKEALEELWEA-NH2 [Peptide 8] | 5.39 ± 1.31 | – |
| KFNDEAEDLFKLFEELFEDM-NH2 [Peptide 10] | 6.81 ± 2.41 | – |
| KFNHEAEDLFEKLM [Peptide 1] | 4.62 ± 0.45 | – |
| KFNHEAEDLFEKLM-NH2 [Peptide 2] | 1.15 ± 0.08 | – |
| MIEEQAKFLDKFNHEAEDLFK-NH2 [Peptide 11] | – | binding to the spike protein RBD at higher concentrations: bound |
